# Source: article PMC11570809, “Novel N-phenyl-2-(aniline) benzamide hydrochloride salt development for colon cancer therapy” (Frontiers in Pharmacology, 2024)
# Values joined by “and” are separate entries in the source; they are usually repeats but may differ in a detail not shown here. Equal values may be shown once. Where a name gives a salt, the structure may show the parent alone. Read-outs that look alike come from different tables or passages of the source.
# Legend:
# HCT116 = assay: MTT anti-proliferation assay, HCT116; assay type: cell-based, human; details: 72 h, read-out: IC50 ± SD HCT116
# Method: The anti-proliferation activities of synthesized compounds to colon cancer cell lines were measured by the MTT (3-[4,5-dimethyl-2-thiazolyl]-2,5-diphenyl-2H-tet razolium bromide) assay. First, the cell suspension was prepared by trypsin and the corresponding medium, cells were diluted to 5 × 10^5 cells/mL, and 96-well plates were added 200 μL per well. The plates were maintained at 37°C in a humidified atmosphere containing 5% CO2 overnight. Then compounds at gradient concentrations were added to cells in the logarithmic phase to make the final concentration at 0.5, 1, 2, 4, 8, 16, and 32 μM. The cells were treated with tested compounds for 72 h, and the growth curve assay was tested in 24 h. When the time was up, 20 μL of MTT solution (5 mg/mL in PBS) was added into each well to incubate for 4 h at 37°C. Then the supernatant liquid was removed, 150 μL DMSO was added into every well to dissolve formazan crystals and read the absorbance at 570 nm by Spark microplate spectrophotometer (Tecan, Swiss). The IC50 values were analyzed by IBM SPASS Statistics 25.0 software. The data are all derived from three parallel experiments (n = 3) and expressed as mean ± SD.
# Human COX-2 = target: T1, Human COX-2 (Homo sapiens, UniProt P35354); assay: COX-2 inhibition assay (Human COX-2 Inhibitor Screening Kit); assay type: biochemical
# T1 construct: purchased Beyotime S0168
# T1 sequence (P35354 18-604): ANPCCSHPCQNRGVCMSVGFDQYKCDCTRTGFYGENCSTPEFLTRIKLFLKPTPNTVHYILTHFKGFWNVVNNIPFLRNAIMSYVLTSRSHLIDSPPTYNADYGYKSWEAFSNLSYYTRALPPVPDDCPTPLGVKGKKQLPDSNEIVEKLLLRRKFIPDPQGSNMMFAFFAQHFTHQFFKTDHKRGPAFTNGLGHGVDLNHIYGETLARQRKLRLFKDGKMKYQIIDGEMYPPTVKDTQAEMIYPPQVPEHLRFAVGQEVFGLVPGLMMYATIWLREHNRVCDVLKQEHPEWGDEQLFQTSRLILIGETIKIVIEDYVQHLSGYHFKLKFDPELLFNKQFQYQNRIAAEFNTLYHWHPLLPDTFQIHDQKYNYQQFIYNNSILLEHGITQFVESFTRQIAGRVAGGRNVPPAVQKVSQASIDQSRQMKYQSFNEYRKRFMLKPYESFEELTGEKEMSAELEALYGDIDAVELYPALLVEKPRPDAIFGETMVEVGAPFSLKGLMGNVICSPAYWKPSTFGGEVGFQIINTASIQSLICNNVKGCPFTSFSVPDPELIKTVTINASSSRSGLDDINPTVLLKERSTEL
# Method: The COX-2 inhibitory activity of all the synthesized compounds was measured by the Human COX-2 Inhibitor Screening Kit (Beyotime, catalog no. S0168), and the specific steps were followed strictly according to the instructions. The lead compound N53 was also tested for reference purposes. The absorbance was measured at an excitation wavelength of 560 nm and an emission wavelength of 590 nm in a microplate reader. Each experimental condition was performed in triplicate and averaged.
# HepG2 = assay: MTT anti-proliferation assay, HepG2; assay type: cell-based, human; details: read-out: IC50 ± SD HepG2
# [1] = Oral pharmacokinetics study; assay type: in vivo, SD rats; details: for T1/2 / Tmax: n = 3
# Method: Six 250–280 g male SD rats, which are 8-week-old, were randomly divided into 2 groups (n = 3). The dose selection is based on previously described ([Xiaoling Hu et al., 2022]). 100 mg/kg N53 and N53·HCl dissolved in normal saline containing 2.5% polyoxyethylene castor oil and 2.5% DMSO was administrated by oral medications. The first group was given 100 mg/kg of N53 by intragastric administration, and the second group was given 100 mg/kg of N53·HCl by intragastric administration. For intragastric administration, blood samples were collected from the orbits of the rats in heparin sodium tubes at 0, 5, 15, 30 min, 1, 2, 4, 6, 8, 12, and 24 h after dosing; The above blood samples were centrifuged (2,500 rpm, 6 min, 4°C) to plasma, and stored at −80°C to be analyzed by LC-MS/MS. Firstly, 5 times methanol was added to each serum sample and mixed well. After centrifugation at 1,600 rpm for 10 min at 4°C, the samples were filtered through a 0.22 μm filter for analysis. The HPLC analysis was carried out on an ODS-C18 column (4.6 mm × 50 mm, 3 μm). The HPLC mobile phases consisted of water (0.1% formic acid) (A) and 95% acetonitrile (including 0.1% formic acid) (B), separated by gradient chromatography at 0.4 mL/min. Chromatographic conditions: mobile phase: 0–0.5 min, acetonitrile: H2O = 10:90; 0.5–0.6 min acetonitrile: H2O = 100:0, 0.6–2.4 min, acetonitrile: H2O = 100:0, 2.4–2.5 min acetonitrile: H2O = 10:90; wavelength: 254 nm; column temperature: 25°C. The column eluate was directly introduced into ES-API. The MS/MS instrument was conducted using the electrospray ionization (ESI) source with a positive ion detection mode. The analytes (N53·HCl) and IS (Propranolol) were all detected by multiple reactions monitoring (MRM) scan mode of transitions from precursor ions to product ions at m/z 435.2→192.1 for N53·HCl (retention time: 1.54 min), m/z 260.0→116.0 for IS (retention time: 1.54 min). The optimized instrument parameters are as follows: declustering potentials (DP) at 51 V for N53·HCl, 78 V for IS; entrance potentials (EP) at 8V; collision energies (CE) at 34 V for N53·HCl, 25 V for IS; collision cell exit potentials (CXP) at 7 V; curtain gas (CUR) at a pressure of 10 psi; turbo spray voltage at 5,500 V. Data acquisition of LC-MS/MS was performed with AnalystTM 1.5 software package (Applied Biosystems, MA, United States). The pharmacokinetic parameters for N53 and N53·HCl were calculated by using the non-compartment method (statistical moment) in DAS 2.0 software (Pharmacokinetics Institute of China).
# RKO cells = assay: Plane colony assay, RKO; assay type: cell-based, human; details: RKO, 1, 2 and 4 µM
# Method: In 6-well plates, HT29 cells and RKO cells (1 × 10^3 cells/well) were inoculated and maintained overnight. Then treated with N53 and N53·HCl at different concentrations for 24 h and with normal culture-medium for 7 days respectively. After that, removed supernatant and fixed by 4% paraformaldehyde for 15 min. Then fixed cells were stained with 1% crystal violet dye for 15 min and rinsed with water. Finally, colonies were counted according to rules that nonoverlapping groups of at least 50 cells. The data are all derived from three parallel experiments (n = 3) and expressed as mean ± SD.
# [2] = 100 mg/kg p.o., n = 3, mean ± SD
Compound,IC50 (HCT116),Inhibition rate (%) of COX-2 (2 μM) (Human COX-2),IC50 (HepG2; 72 h),Cmax (peak plasma concentration) ([1]; 100 mg/kg p.o.),T1/2 ([1]; 100 mg/kg p.o.),Tmax ([1]; 100 mg/kg p.o.),"AUC0(-∞) [1, 2]","CLz [1, 2]","Cmax [1, 2]","Vd/F ([1]; male, SD, rat, plasma, po, 100 mg/kg, 100 mg/kg p.o., n = 3, mean ± SD, read-out: Vz/F)","IC50 (HepG2; Homo sapiens, HepG2, 72 h)",Number of cell clones formed (RKO cells),"Vz/F [1, 2]","Tmax ([1]; male, SD, rat, plasma, po, 100 mg/kg, 100 mg/kg p.o., read-out: Tmax)",AUC0–∞ increase relative to N53 ([1]; oral),Cmax increase relative to N53 ([1]; oral)
"Cc1c(Cl)cccc1Nc1ccccc1C(=O)Nc1ccc(N2CCN(C)CC2)cc1 [Compound N53, 2-((3-chloro-2-methylphenyl)amino)-N-(4-(4-methylp-iperazin-1-yl)phenyl)benzamide]",3.89 ± 0.41 µM,3.6 ± 1.1%,2.31 ± 0.09 µM,333.7 µg/mL and 333 µg/mL,10.78 h and 10.8 ± 0.7 h,6.0 ± 2.0 h,7200 ± 700 ng·h/mL,232 ± 21.7 mL/min/kg,330 ± 40 µg/mL,217 ± 33.3 L/kg,–,–,–,–,–,–
"Cc1c(Cl)cccc1Nc1ccccc1C(=O)Nc1ccc(N2CCN(C)CC2)cc1 [N53·HCl, 4-(4-(2-((3-chloro-2-methylphenyl)amino)ben-zamido)phenyl)-1-methylpiperazin-1-ium]",10.9 ± 1.3 µM,32.5 ± 7.8%,–,680.0 µg/mL,22.3 ± 9.9 h,6.7 ± 4.6 h,21200 ± 8000 ng·h/mL,85 ± 26.7 mL/min/kg,680 ± 180 µg/mL,–,4.12 ± 0.39 µM,decreased significantly and dose-dependently,149.7 ± 11.6 L/kg,6.67 h,3 fold,2 fold
